# Data reported in patent US9695133B2, “Quinazolinone-based oncogenic-RAS-selective lethal compounds and their use” (THE TRUSTEES OF COLUMBIA UNIVERSITY IN THE CITY OF NEW YORK, priority 2012, dated 2017).
# System: HT-1080 cells
# Assay: Metabolite profiling (LC-MS/MS) upon erastin treatment
# Type: cell-based, human
# Details: 5 μg/mL erastin 5 h
# Description: 2 million HT-1080 cells were seeded in 10 cm culture dishes. […] 4 mL of cold 80% methanol was added to the cell monolayer to extract polar metabolites using a cell scraper. The cell lysate/methanol mixture was transferred to a 15 mL tube and centrifuged at 2,000×g at 4° C. for 10 minutes to pellet debris and proteins. The supernatant was transferred to a new tube and stored at −80° C. for liquid chromatography-mass spectrometry/mass spectrometry (LC-MS/MS) analysis. For lipid extract preparation, 3 mL of cold 100% isopropanol was added to the cell monolayer to scrape out cells. The resulting cell lysate/isopropanol mixture was transferred to a new 15 mL tube and centrifuged at 2,000×g at 4° C. for 10 minutes. The cleared supernatant was transferred to a new tube and stored at −20° C. for LC-MS/MS analysis.
# The metabolite extract was subjected to LC-MS/MS analysis to determine the quantity of each metabolite in each sample.
structure (smiles),measurement,value
CCOc1ccccc1-n1c(C(C)N2CCN(C(=O)COc3ccc(Cl)cc3)CC2)nc2ccccc2c1=O (stereo not drawn) [erastin],G6P Erastin/DMSO,1.134
same,G6P log2 (Erastin/DMSO),0.181
same,GABA Erastin/DMSO,1.173
same,GABA log2 (Erastin/DMSO),0.2297
same,GDP Erastin/DMSO,0.8497
same,GDP log2 (Erastin/DMSO),−0.235
same,GMP Erastin/DMSO,1.066
same,GMP log2 (Erastin/DMSO),0.09204
same,IMP Erastin/DMSO,1.065
same,IMP log2 (Erastin/DMSO),0.09035
same,N-carbomoyl-beta-alanine Erastin/DMSO,0.7958
same,N-carbomoyl-beta-alanine log2 (Erastin/DMSO),−0.3296
same,NAD Erastin/DMSO,0.9157
same,NAD log2 (Erastin/DMSO),−0.127
same,NADH Erastin/DMSO,0.8051
same,NADH log2 (Erastin/DMSO),−0.3128
same,NMMA Erastin/DMSO,0.9886
same,NMMA log2 (Erastin/DMSO),−0.01661
same,OH-phenylpyruvate Erastin/DMSO,0.8442
same,OH-phenylpyruvate log2 (Erastin/DMSO),−0.2443
same,PEP Erastin/DMSO,1.147
same,PEP log2 (Erastin/DMSO),0.1975
same,SDMA Erastin/DMSO,0.9505
same,SDMA log2 (Erastin/DMSO),−0.07329
same,UDP Erastin/DMSO,1.002
same,UDP log2 (Erastin/DMSO),0.002894
same,UDP-galactose/UDP-glucose Erastin/DMSO,0.9003
same,UDP-galactose/UDP-glucose log2 (Erastin/DMSO),−0.1516
same,UDP-glucuronate Erastin/DMSO,0.9339
same,UDP-glucuronate log2 (Erastin/DMSO),−0.09865
same,UMP Erastin/DMSO,1.049
same,UMP log2 (Erastin/DMSO),0.06891
same,XMP Erastin/DMSO,0.8599
same,XMP log2 (Erastin/DMSO),−0.2178
same,acetylcholine Erastin/DMSO,0.8307
same,acetylcholine log2 (Erastin/DMSO),−0.2676
same,aconitate Erastin/DMSO,1.036
same,aconitate log2 (Erastin/DMSO),0.05158
same,adenine Erastin/DMSO,1.254
same,adenine log2 (Erastin/DMSO),0.3261
same,adenosine Erastin/DMSO,1.376
same,adenosine log2 (Erastin/DMSO),0.4605
same,adipate Erastin/DMSO,1.091
same,adipate log2 (Erastin/DMSO),0.1256
same,alanine Erastin/DMSO,1.061
same,alanine log2 (Erastin/DMSO),0.0857
same,allantoin Erastin/DMSO,0.9512
same,allantoin log2 (Erastin/DMSO),−0.07213
same,alpha-glycerophosphate Erastin/DMSO,0.7556
same,alpha-glycerophosphate log2 (Erastin/DMSO),−0.4043
same,alpha-glycerophosphocholine Erastin/DMSO,0.2194
same,alpha-glycerophosphocholine log2 (Erastin/DMSO),−2.188
same,alpha-ketoglutarate Erastin/DMSO,0.9867
same,alpha-ketoglutarate log2 (Erastin/DMSO),−0.01926
same,arginine Erastin/DMSO,0.9866
same,arginine log2 (Erastin/DMSO),−0.01943
same,ascorbate Erastin/DMSO,1.196
same,ascorbate log2 (Erastin/DMSO),0.2586
same,asparagine Erastin/DMSO,1.069
same,asparagine log2 (Erastin/DMSO),0.09662
same,aspartate Erastin/DMSO,1.017
same,aspartate log2 (Erastin/DMSO),0.02452
same,betaine Erastin/DMSO,0.9528
same,betaine log2 (Erastin/DMSO),−0.06976
same,cAMP Erastin/DMSO,1.266
same,cAMP log2 (Erastin/DMSO),0.3404
same,carnitine Erastin/DMSO,0.802
same,carnitine log2 (Erastin/DMSO),−0.3183
same,carnosine Erastin/DMSO,0.9657
same,carnosine log2 (Erastin/DMSO),−0.0503
same,choline Erastin/DMSO,0.8139
same,choline log2 (Erastin/DMSO),−0.2971
same,cis/trans hydroxyproline Erastin/DMSO,1.099
same,cis/trans hydroxyproline log2 (Erastin/DMSO),0.1366
same,citrate Erastin/DMSO,0.974
same,citrate log2 (Erastin/DMSO),−0.03805
same,citrulline Erastin/DMSO,1.036
same,citrulline log2 (Erastin/DMSO),0.05057
same,cotinine Erastin/DMSO,0.9037
same,cotinine log2 (Erastin/DMSO),−0.146
same,creatine Erastin/DMSO,0.8675
same,creatine log2 (Erastin/DMSO),−0.205
same,creatinine Erastin/DMSO,0.972
same,creatinine log2 (Erastin/DMSO),−0.04091
same,cystamine Erastin/DMSO,1.09
same,cystamine log2 (Erastin/DMSO),0.1248
same,cystathionine Erastin/DMSO,1.263
same,cystathionine log2 (Erastin/DMSO),0.3368
same,cytidine Erastin/DMSO,6.079
same,cytidine log2 (Erastin/DMSO),2.604
same,cytosine Erastin/DMSO,0.8863
same,cytosine log2 (Erastin/DMSO),−0.1741
same,dCMP Erastin/DMSO,0.9184
same,dCMP log2 (Erastin/DMSO),−0.1228
same,dGMP Erastin/DMSO,1.052
same,dGMP log2 (Erastin/DMSO),0.07275
same,dTMP Erastin/DMSO,0.6985
same,dTMP log2 (Erastin/DMSO),−0.5178
same,dUMP Erastin/DMSO,0.6787
same,dUMP log2 (Erastin/DMSO),−0.5592
same,dimethylglycine Erastin/DMSO,0.9338
same,dimethylglycine log2 (Erastin/DMSO),−0.09885
same,folate Erastin/DMSO,1.032
same,folate log2 (Erastin/DMSO),0.04552
same,fumarate Erastin/DMSO,0.9822
same,fumarate log2 (Erastin/DMSO),−0.02598
same,glucose Erastin/DMSO,0.9717
same,glucose log2 (Erastin/DMSO),−0.04147
same,glucose/fructose/galactose Erastin/DMSO,1.011
same,glucose/fructose/galactose log2 (Erastin/DMSO),0.01526
same,glucuronate Erastin/DMSO,0.61
same,glucuronate log2 (Erastin/DMSO),−0.7132
same,glutamate Erastin/DMSO,1.019
same,glutamate log2 (Erastin/DMSO),0.02762
same,glutamine Erastin/DMSO,1.015
same,glutamine log2 (Erastin/DMSO),0.02096
same,glutathione oxidized Erastin/DMSO,0.3235
same,glutathione oxidized log2 (Erastin/DMSO),−1.628
same,glutathione reduced Erastin/DMSO,0.007019
same,glutathione reduced log2 (Erastin/DMSO),−7.154
same,glyceraldehyde-3-phosphate Erastin/DMSO,1.192
same,glyceraldehyde-3-phosphate log2 (Erastin/DMSO),0.2529
same,glycerol Erastin/DMSO,1.058
same,glycerol log2 (Erastin/DMSO),0.08176
same,glycine Erastin/DMSO,0.9723
same,glycine log2 (Erastin/DMSO),−0.04055
same,glycochenodeoxycholate Erastin/DMSO,1.067
same,glycochenodeoxycholate log2 (Erastin/DMSO),0.09335
same,glycocholate Erastin/DMSO,0.9975
same,glycocholate log2 (Erastin/DMSO),−0.003654
same,glycodeoxycholate Erastin/DMSO,1.054
same,glycodeoxycholate log2 (Erastin/DMSO),0.07552
same,guanosine Erastin/DMSO,4.51
same,guanosine log2 (Erastin/DMSO),2.173
same,hippurate Erastin/DMSO,1.005
same,hippurate log2 (Erastin/DMSO),0.007657
same,histamine Erastin/DMSO,0.9526
same,histamine log2 (Erastin/DMSO),−0.07002
same,histidine Erastin/DMSO,0.9779
same,histidine log2 (Erastin/DMSO),−0.03228
same,hydroxyphenylacetate Erastin/DMSO,1.024
same,hydroxyphenylacetate log2 (Erastin/DMSO),0.03431
same,hypoxanthine Erastin/DMSO,0.9819
same,hypoxanthine log2 (Erastin/DMSO),−0.02629
same,indoxylsulfate Erastin/DMSO,0.7913
same,indoxylsulfate log2 (Erastin/DMSO),−0.3377
same,inosine Erastin/DMSO,1.867
same,inosine log2 (Erastin/DMSO),0.9005
same,isocitrate Erastin/DMSO,1.051
same,isocitrate log2 (Erastin/DMSO),0.07189
same,isoleucine Erastin/DMSO,0.9526
same,isoleucine log2 (Erastin/DMSO),−0.07
same,isomer_of_erythrose-4-phosphate Erastin/DMSO,0.5887
same,isomer_of_erythrose-4-phosphate log2 (Erastin/DMSO),−0.7644
same,kynurenic acid Erastin/DMSO,0.8322
same,kynurenic acid log2 (Erastin/DMSO),−0.265
same,kynurenine Erastin/DMSO,1.04
same,kynurenine log2 (Erastin/DMSO),0.05699
same,lactate Erastin/DMSO,0.884
same,lactate log2 (Erastin/DMSO),−0.1779
same,leucine Erastin/DMSO,0.9497
same,leucine log2 (Erastin/DMSO),−0.07444
same,lysine Erastin/DMSO,0.9654
same,lysine log2 (Erastin/DMSO),−0.05081
same,malate Erastin/DMSO,1.143
same,malate log2 (Erastin/DMSO),0.1934
same,maleate/3-methyl-2-oxobutanoate Erastin/DMSO,0.9484
same,maleate/3-methyl-2-oxobutanoate log2 (Erastin/DMSO),−0.07647
same,malonate Erastin/DMSO,1.025
same,malonate log2 (Erastin/DMSO),0.03595
same,methionine Erastin/DMSO,0.9702
same,methionine log2 (Erastin/DMSO),−0.04361
same,niacinamide Erastin/DMSO,0.9289
same,niacinamide log2 (Erastin/DMSO),−0.1065
same,nicotinate Erastin/DMSO,1.085
same,nicotinate log2 (Erastin/DMSO),0.1179
same,ornithine Erastin/DMSO,0.9482
same,ornithine log2 (Erastin/DMSO),−0.07676
same,orotate Erastin/DMSO,1.138
same,orotate log2 (Erastin/DMSO),0.1864
same,oxalate Erastin/DMSO,1.019
same,oxalate log2 (Erastin/DMSO),0.02659
same,pantothenate Erastin/DMSO,1.194
same,pantothenate log2 (Erastin/DMSO),0.2564
same,phenylacetylglycine Erastin/DMSO,1.135
same,phenylacetylglycine log2 (Erastin/DMSO),0.1828
same,phenylalanine Erastin/DMSO,1.005
same,phenylalanine log2 (Erastin/DMSO),0.007013
same,phosphocholine Erastin/DMSO,0.5252
same,phosphocholine log2 (Erastin/DMSO),−0.9291
same,phosphocreatine Erastin/DMSO,1.173
same,phosphocreatine log2 (Erastin/DMSO),0.2302
same,phosphoglycerate Erastin/DMSO,0.9848
same,phosphoglycerate log2 (Erastin/DMSO),−0.02206
same,phosphotyrosine Erastin/DMSO,0.6533
same,phosphotyrosine log2 (Erastin/DMSO),−0.6143
same,pimelate/3-methyladipate Erastin/DMSO,1.021
same,pimelate/3-methyladipate log2 (Erastin/DMSO),0.03006
same,proline Erastin/DMSO,1.086
same,proline log2 (Erastin/DMSO),0.1195
same,proprionate Erastin/DMSO,1.092
same,proprionate log2 (Erastin/DMSO),0.1269
same,pyruvate Erastin/DMSO,1.283
same,pyruvate log2 (Erastin/DMSO),0.3592
same,quinolinate Erastin/DMSO,1.015
same,quinolinate log2 (Erastin/DMSO),0.02178
same,ribose-5-P Erastin/DMSO,1.113
same,ribose-5-P log2 (Erastin/DMSO),0.155
same,ribulose-5-P Erastin/DMSO,1.051
same,ribulose-5-P log2 (Erastin/DMSO),0.07112
same,salicylurate Erastin/DMSO,0.9637
same,salicylurate log2 (Erastin/DMSO),−0.05339
same,sebacate Erastin/DMSO,0.9419
same,sebacate log2 (Erastin/DMSO),−0.08641
same,serine Erastin/DMSO,1.053
same,serine log2 (Erastin/DMSO),0.07514
same,serotonin Erastin/DMSO,0.7924
same,serotonin log2 (Erastin/DMSO),−0.3357
same,sorbitol Erastin/DMSO,0.9709
same,sorbitol log2 (Erastin/DMSO),−0.04258
same,suberate Erastin/DMSO,1.003
same,suberate log2 (Erastin/DMSO),0.004641
same,succinate/methylmalonate Erastin/DMSO,1.008
same,succinate/methylmalonate log2 (Erastin/DMSO),0.01178
same,sucrose Erastin/DMSO,1.408
same,sucrose log2 (Erastin/DMSO),0.4939
same,taurine Erastin/DMSO,0.8259
same,taurine log2 (Erastin/DMSO),−0.276
same,taurochenodeoxycholate Erastin/DMSO,1.181
same,taurochenodeoxycholate log2 (Erastin/DMSO),0.2399
same,taurocholate Erastin/DMSO,1.108
same,taurocholate log2 (Erastin/DMSO),0.1484
same,taurodeoxycholate Erastin/DMSO,1.168
same,taurodeoxycholate log2 (Erastin/DMSO),0.2237
same,taurolithocholate Erastin/DMSO,1.093
same,taurolithocholate log2 (Erastin/DMSO),0.1287
same,thiamine Erastin/DMSO,0.9385
same,thiamine log2 (Erastin/DMSO),−0.09157
same,threonine Erastin/DMSO,0.9924
same,threonine log2 (Erastin/DMSO),−0.01095
same,thymidine Erastin/DMSO,1.402
same,thymidine log2 (Erastin/DMSO),0.4879
same,thymine Erastin/DMSO,1.257
same,thymine log2 (Erastin/DMSO),0.3302
same,thyroxine Erastin/DMSO,0.8859
same,thyroxine log2 (Erastin/DMSO),−0.1748
same,triiodothyronine Erastin/DMSO,0.8066
same,triiodothyronine log2 (Erastin/DMSO),−0.31
same,trimethylamine-N-oxide Erastin/DMSO,1.222
same,trimethylamine-N-oxide log2 (Erastin/DMSO),0.2895
same,tryptophan Erastin/DMSO,0.9911
same,tryptophan log2 (Erastin/DMSO),−0.01285
same,tyrosine Erastin/DMSO,0.9821
same,tyrosine log2 (Erastin/DMSO),−0.02607
same,urate Erastin/DMSO,1.018
same,urate log2 (Erastin/DMSO),0.0257
same,uridine Erastin/DMSO,4.369
same,uridine log2 (Erastin/DMSO),2.127
same,valine Erastin/DMSO,0.9822
same,valine log2 (Erastin/DMSO),−0.02594
same,xanthine Erastin/DMSO,1.027
same,xanthine log2 (Erastin/DMSO),0.03817
same,xanthosine Erastin/DMSO,0.98
same,xanthosine log2 (Erastin/DMSO),−0.02909
